Assay results from patent US8673897B2, “Benzodiazepinone compounds and methods of treatment using same” (The Regents of the University of Michigan, priority 2009, dated 2014).
Where two headings read alike, the source gives them in different places.

Tests used:
ATPase = molecular target: T1, ATPase (Bos taurus, UniProt P13621); assay: ATPase inhibition assay; format: biochemical
T1 construct: from tissue; host or cells: bovine sub-mitochondrial particles (SMPs)
Description: (§1) Representative compounds were tested for cytotoxicity in Ramos cells and inhibitory activity against ATPase. The Ramos cell death assay and ATPase inhibition assay were conducted as described in K. M. Johnson et al. Chemistry & Biology 2005, 12, 485-496.

Ramos cells = assay: Ramos cell death assay (cytotoxicity); format: cell-based; conditions: Homo sapiens
Description: as §1

Structure (SMILES) | IC50 (ATPase) | EC50 (Ramos cells) | IC50 (ATPase; read-out: ATPase IC50)
Cn1c(=O)[nH]c2ccc(C3=NC(Cc4ccc(Cl)cc4)C(=O)Nc4ccc(Cl)cc43)cc21 (stereo not drawn) [Compound I-13, 7-Chloro-3-(4-chlorobenzyl)-5-(3-methyl-2-oxo-2,3-dihydro-1H-benzo[d]imidazol-5-yl)-1H-benzo[e][1,4]diazepin-2(3H)-one] | < 7 µM | < 7 µM | 
CNC(=O)Cn1c(=O)[nH]c2ccc(C3=NC(Cc4ccccc4Cl)C(=O)Nc4ccc(Cl)cc43)cc21 (stereo not drawn) [Compound I-4, 2-(6-(7-Chloro-3-(2-chlorobenzyl)-2-oxo-2,3-dihydro-1H-benzo[e][1,4]diazepin-5-yl)-2-oxo-2,3-dihydro-1H-benzo[d]imidazol-1-yl)-N-methylacetamide] |  | > 7 µM | > 7 µM
Cn1c(=O)[nH]c2ccc(C3=N[C@@H](Cc4ccccc4Cl)C(=O)Nc4ccc(Cl)cc43)cc21 [IV-2, (S)-7-chloro-3-(2-chlorobenzyl)-5-(3-methyl-2-oxo-2,3-dihydro-1H-benzo[d]imidazol-5-yl)-1H-benzo[e][1,4]diazepin-2(3H)-one] | < 7 µM | < 7 µM | 
Cc1cc(C2=NC(Cc3ccc(Cl)cc3)C(=O)Nc3ccc(Cl)cc32)ccc1O (stereo not drawn) [III-3, 7-Chloro-3-(4-chlorobenzyl)-5-(4-hydroxy-3-methylphenyl)-1H-benzo[e][1,4]diazepin-2(3H)-one] | < 7 µM | < 7 µM | 
Cc1cc(C2=NC(Cc3ccc(F)cc3Cl)C(=O)Nc3ccc(Cl)cc32)ccc1O (stereo not drawn) [III-4, 7-Chloro-3-(2-chloro-4-fluorobenzyl)-5-(4-hydroxy-3-methylphenyl)-1H-benzo[e][1,4]diazepin-2(3H)-one] | < 7 µM | < 7 µM | 
CN1C(=O)C(Cc2ccccc2Cl)N=C(c2ccc3[nH]c(=O)n(C)c3c2)c2cc(Cl)ccc21 (stereo not drawn) [Compound I-11, 7-Chloro-3-(2-chlorobenzyl)-1-methyl-5-(3-methyl-2-oxo-2,3-dihydro-1H-benzo[d]imidazol-5-yl)-1H-benzo[e][1,4]diazepin-2(3H)-one] |  | > 7 µM | < 7 µM
Cc1cc(C2=NC(Cc3ccccc3C(F)(F)F)C(=O)Nc3ccc(Cl)cc32)ccc1O (stereo not drawn) [III-5, 7-Chloro-5-(4-hydroxy-3-methylphenyl)-3-(2-(trifluoromethyl)benzyl)-1H-benzo[e][1,4]diazepin-2(3H)-one] | < 7 µM | < 7 µM | 
Cc1cc(C2=N[C@H](Cc3ccccc3Cl)C(=O)Nc3ccc(Cl)cc32)ccc1O [IV-6, (R)-7-Chloro-3-(2-chlorobenzyl)-5-(4-hydroxy-3-methylphenyl)-1H-benzo[e][1,4]diazepin-2(3H)-one] | < 7 µM | < 7 µM | 
O=C1Nc2ccc(Cl)cc2C(c2ccc3[nH]c(=O)n(CCO)c3c2)=NC1Cc1ccccc1Cl (stereo not drawn) [Compound I-6, 7-Chloro-3-(2-chlorobenzyl)-5-(3-(2-hydroxyethyl)-2-oxo-2,3-dihydro-1H-benzo[d]imidazol-5-yl)-1H-benzo[e][1,4]diazepin-2(3H)-one] |  | < 7 µM | > 7 µM
Cn1c(=O)[nH]c2ccc(C3=NC(Cc4ccccc4Cl)C(=O)Nc4ccc(Cl)cc43)cc21 (stereo not drawn) [Compound I-2, 7-Chloro-3-(2-chlorobenzyl)-5-(3-methyl-2-oxo-2,3-dihydro-1H-benzo[d]imidazol-5-yl)-1H-benzo[e][1,4]diazepin-2(3H)-one] | < 7 µM | < 7 µM | 
CN1C(=O)C(Cc2ccccc2Cl)N=C(c2ccc3[nH]c(=O)n(CCCO)c3c2)c2cc(Cl)ccc21 (stereo not drawn) [Compound I-7, 7-Chloro-3-(2-chlorobenzyl)-5-(3-(3-hydroxypropyl)-2-oxo-2,3-dihydro-1H-benzo[d]imidazol-5-yl)-1-methyl-1H-benzo[e][1,4]diazepin-2(3H)-one] |  | > 7 µM | < 7 µM
CCc1ccc(CC2N=C(c3ccc(O)c(CC(N)=O)c3)c3cc(Cl)ccc3NC2=O)cc1CC (stereo not drawn) [III-1, 2-(5-(7-Chloro-3-(3,4-diethylbenzyl)-2-oxo-2,3-dihydro-1H-benzo[e][1,4]diazepin-5-yl)-2-hydroxyphenyl)acetamide] |  | < 7 µM | > 7 µM
Cc1cc(C2=N[C@@H](Cc3ccccc3Cl)C(=O)Nc3ccc(Cl)cc32)ccc1O [IV-5, (S)-7-Chloro-3-(2-chlorobenzyl)-5-(4-hydroxy-3-methylphenyl)-1H-benzo[e][1,4]diazepin-2(3H)-one] | < 7 µM | < 7 µM | 
Cc1cc(C2=NC(Cc3ccc(C(F)(F)F)cc3)C(=O)Nc3ccc(Cl)cc32)ccc1O (stereo not drawn) [III-6, 7-Chloro-5-(4-hydroxy-3-methylphenyl)-3-(4-(trifluoromethyl)benzyl)-1H-benzo[e][1,4]diazepin-2(3H)-one] | > 7 µM | > 7 µM | 
Cn1c(=O)[nH]c2ccc(C3=NC(Cc4ccccc4Cl)C(=O)Nc4c(F)cc(Cl)cc43)cc21 (stereo not drawn) [Compound I-12, 7-Chloro-3-(2-chlorobenzyl)-9-fluoro-5-(3-methyl-2-oxo-2,3-dihydro-1H-benzo[d]imidazol-5-yl)-1H-benzo[e][1,4]diazepin-2(3H)-one] |  | > 7 µM | < 7 µM
CCn1c(=O)[nH]c2ccc(C3=NC(Cc4ccc5ccccc5c4)C(=O)N(C)c4ccc(Cl)cc43)cc21 (stereo not drawn) [Compound I-1, 7-Chloro-5-(3-ethyl-2-oxo-2,3-dihydro-1H-benzo[d]imidazol-5-yl)-1-methyl-3-(naphthalen-2-ylmethyl)-1H-benzo[e][1,4]diazepin-2(3H)-one] |  | > 7 µM | < 7 µM
O=C(O)Cn1c(=O)[nH]c2ccc(C3=NC(Cc4ccccc4Cl)C(=O)Nc4ccc(Cl)cc43)cc21 (stereo not drawn) [Compound I-3, 2-(6-(7-Chloro-3-(2-chlorobenzyl)-2-oxo-2,3-dihydro-1H-benzo[e][1,4]diazepin-5-yl)-2-oxo-2,3-dihydro-1H-benzo[d]imidazol-1-yl)acetic acid] |  | > 7 µM | > 7 µM
O=C1Nc2ccc(F)cc2C(c2ccc3[nH]c(=O)[nH]c3c2)=NC1Cc1ccccc1Cl (stereo not drawn) [II-1, 3-(2-Chlorobenzyl)-7-fluoro-5-(2-oxo-2,3-dihydro-1H-benzo[d]imidazol-5-yl)-1H-benzo[e][1,4]diazepin-2(3H)-one] | > 7 µM | < 7 µM | 
CCn1c(=O)[nH]c2cc(C3=NC(Cc4ccc5ccccc5c4)C(=O)Nc4ccc(Cl)cc43)ccc21 (stereo not drawn) [Compound I-14] |  | < 7 µM | < 7 µM
O=C1Nc2ccc(Cl)cc2C(c2ccc3[nH]c(=O)n(CCCO)c3c2)=N[C@H]1Cc1ccccc1Cl [IV-4, (S)-7-Chloro-3-(2-chlorobenzyl)-5-(3-(3-hydroxypropyl)-2-oxo-2,3-dihydro-1H-benzo[d]imidazol-5-yl)-1H-benzo[e][1,4]diazepin-2(3H)-one] |  | < 7 µM | < 7 µM
O=C1Nc2ccc(Cl)cc2C(c2ccc3[nH]c(=O)n(CCCO)c3c2)=NC1Cc1ccccc1Cl (stereo not drawn) [Compound I-5, 7-Chloro-3-(2-chlorobenzyl)-5-(3-(3-hydroxypropyl)-2-oxo-2,3-dihydro-1H-benzo[d]imidazol-5-yl)-1H-benzo[e][1,4]diazepin-2(3H)-one] |  | < 7 µM | < 7 µM
Cn1c(=O)[nH]c2ccc(C3=NC(Cc4ccccc4Cl)C(=O)Nc4c(O)cc(Cl)cc43)cc21 (stereo not drawn) [Compound I-10, 7-Chloro-3-(2-chlorobenzyl)-9-hydroxy-5-(3-methyl-2-oxo-2,3-dihydro-1H-benzo[d]imidazol-5-yl)-1H-benzo[e][1,4]diazepin-2(3H)-one] |  | > 7 µM | < 7 µM
Cc1cc(C2=NC(Cc3cc(F)ccc3Cl)C(=O)Nc3ccc(Cl)cc32)ccc1O (stereo not drawn) [III-2, 7-Chloro-3-(2-chloro-5-fluorobenzyl)-5-(4-hydroxy-3-methylphenyl)-1H-benzo[e][1,4]diazepin-2(3H)-one] | < 7 µM | < 7 µM | 
Cn1c(=O)[nH]c2ccc(C3=NC(Cc4ccccc4Cl)C(=O)N(CCO)c4ccc(Cl)cc43)cc21 (stereo not drawn) [Compound I-8, 7-Chloro-3-(2-chlorobenzyl)-1-(2-hydroxyethyl)-5-(3-methyl-2-oxo-2,3-dihydro-1H-benzo[d]imidazol-5-yl)-1H-benzo[e][1,4]diazepin-2(3H)-one] |  | > 7 µM | < 7 µM
O=C1Nc2ccc(Cl)cc2C(c2ccc3[nH]c(=O)n(CCCO)c3c2)=N[C@@H]1Cc1ccccc1Cl [IV-3, (R)-7-chloro-3-(2-chlorobenzyl)-5-(3-(3-hydroxypropyl)-2-oxo-2,3-dihydro-1H-benzo[d]imidazol-5-yl)-1H-benzo[e][1,4]diazepin-2(3H)-one] |  | < 7 µM | < 7 µM
COc1cc(Cl)cc2c1NC(=O)C(Cc1ccccc1Cl)N=C2c1ccc2[nH]c(=O)n(C)c2c1 (stereo not drawn) [Compound I-9, 7-Chloro-3-(2-chlorobenzyl)-9-methoxy-5-(3-methyl-2-oxo-2,3-dihydro-1H-benzo[d]imidazol-5-yl)-1H-benzo[e][1,4]diazepin-2(3H)-one] |  | < 7 µM | < 7 µM
Cn1c(=O)[nH]c2ccc(C3=N[C@H](Cc4ccccc4Cl)C(=O)Nc4ccc(Cl)cc43)cc21 [IV-1, (R)-7-Chloro-3-(2-chlorobenzyl)-5-(3-methyl-2-oxo-2,3-dihydro-1H-benzo[d]imidazol-5-yl)-1H-benzo[e][1,4]diazepin-2(3H)-one] | < 7 µM | < 7 µM | 
